Results: PMC8810880, “Comprehensive characterization and molecular insights into the salt tolerance of a Cu, Zn-superoxide dismutase from an Indian Mangrove, Avicennia marina” (Scientific Reports, 2022)

Molecular target: T1, Am_SOD (recombinant Cu, Zn-superoxide dismutase) (Avicennia marina, UniProt Q9AXH2)
T1 construct: full-length 459 bp ORF in pET22b+ (NdeI/XhoI), 6xHis tag (printed as N-terminal); homodimer ~32-33 kDa, monomer ~16 kDa; no signal peptide found
T1 sequence (Q9AXH2 1-152): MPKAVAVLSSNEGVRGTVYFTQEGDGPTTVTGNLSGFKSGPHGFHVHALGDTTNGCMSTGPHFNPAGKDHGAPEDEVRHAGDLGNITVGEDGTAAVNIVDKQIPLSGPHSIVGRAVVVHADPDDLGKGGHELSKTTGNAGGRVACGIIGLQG
Assay: riboflavin-NBT SOD inhibition assay, A560
Assay type: biochemical
From the text: riboflavin-NBT SOD inhibition assay, A560 on Am_SOD (recombinant Cu, Zn-superoxide dismutase) | inhibited in a dose-dependent manner by sodium diethyldithiocarbamate trihydrate, and the IC50 was obtained at […]

IC50: 1500 µM
SMILES: CCN(CC)C(=S)S [DDC, sodium diethyldithiocarbamate trihydrate]
